Results as given in EP0620225B1, “Cephalosporin derivatives” (Basilea Pharmaceutica AG, priority 1993, dated 1994).
Structures can show the parent of a compound that is named as a salt.

Columns and labels:
E. coli ATCC 25922 = experiment: MIC, agar dilution method in Mueller Hinton agar; format: cell-based; conditions: Escherichia coli, ATCC25922, read-out: Minimum Inhibiting Concentration Values
Description: (§1) In vitro activity was determined by minimum inhibitory concentration in a microorganism spectum by the agar dilution method in Mueller Hinton agar.

E. coli TEM-1 = experiment: MIC, agar dilution method in Mueller Hinton agar; format: cell-based; conditions: Escherichia coli, TEM1, read-out: Minimum Inhibiting Concentration Values
Description: as §1

Prot. vulgaris ATCC 6380 = experiment: MIC, agar dilution method in Mueller Hinton agar; format: cell-based; conditions: Proteus vulgaris, ATCC6380, read-out: Minimum Inhibiting Concentration Values
Description: as §1

Ps. aeruginosa 5712 = experiment: MIC, agar dilution method in Mueller Hinton agar; format: cell-based; conditions: Pseudomonas aeruginosa, read-out: Minimum Inhibiting Concentration Values
Description: as §1

[1] = test system: Ps. aeruginosa ATCC 27853; experiment: MIC, agar dilution method in Mueller Hinton agar; format: cell-based; conditions: Pseudomonas aeruginosa, ATCC27853, read-out: Minimum Inhibiting Concentration Values
Description: as §1

Staph. aureus ATCC 29213 = experiment: MIC, agar dilution method in Mueller Hinton agar; format: cell-based; conditions: Staphylococcus aureus, ATCC29213, read-out: Minimum Inhibiting Concentration Values
Description: as §1

Staph. aureus Smith = experiment: MIC, agar dilution method in Mueller Hinton agar; format: cell-based; conditions: Staphylococcus aureus, read-out: Minimum Inhibiting Concentration Values
Description: as §1

Str. pneumoniae 6301 = experiment: MIC, agar dilution method in Mueller Hinton agar; format: cell-based; conditions: Streptococcus pneumoniae, 6301, read-out: Minimum Inhibiting Concentration Values
Description: as §1

Str. pyogenes 4 = experiment: MIC, agar dilution method in Mueller Hinton agar; format: cell-based; conditions: Streptococcus pyogenes, read-out: Minimum Inhibiting Concentration Values
Description: as §1

Escherichia coli 25922 = experiment: Efficacy against systemic infections (septicemia) in mice; format: in vivo; conditions: 96 h, Escherichia coli 25922, po (orally) 1 and 3 h after challenge, survival day 4
Method in brief: (§2)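 Swiss albino mice (16–20 g) infected i.p. with 4–10× the 48-h LD50 of each strain; compound given p.o. or s.c. at 1 and 3 h post-challenge, plus 5 h for P. aeruginosa BA. Five mice per group; ED50 (mg/kg) by probit analysis of day-4 survival.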

[2] = test system: Pseudomonas aeruginosa BA; experiment: as above; format: in vivo; conditions: 96 h, sc (subcutaneous) 1, 3 and 5 h after challenge, survival day 4
Method in brief: as §2

[3] = test system: Streptococcus pyogenes 15; experiment: as above; format: in vivo; conditions: 96 h, Streptococcus pyogenes 15, po (orally) 1 and 3 h after challenge, survival day 4
Method in brief: as §2

Nc1nc(/C(=N/OCC(=O)O)C(=O)N[C@@H]2C(=O)N3C(C(=O)O)=C(/C=C4\CCN(CC(F)(F)F)C4=O)CS[C@H]23)cs1 [A, [6R-[3(E),6α,7β(Z)]]-7-[[(2-Amino-4-thiazolyl)[(carboxy-methoxy)imino]-acetyl]amino]-3-[[1-(2,2,2-trifluoroethyl)-2-oxo-3-pyrrolidinylidene]-methyl]-8-oxo-5-thia-1-aza-bicyclo[4.2.0]oct-2-ene-2-carboxylic acid disodium salt]
MIC (E. coli ATCC 25922): 0.0625 µg/mL | MIC (E. coli TEM-1): 0.0625 µg/mL | MIC (Prot. vulgaris ATCC 6380): ≤ 0.0156 µg/mL | MIC (Ps. aeruginosa 5712): 8 µg/mL | MIC [1]: 8 µg/mL | MIC (Staph. aureus ATCC 29213): 16 µg/mL | MIC (Staph. aureus Smith): 8 µg/mL | MIC (Str. pneumoniae 6301): 0.0625 µg/mL | MIC (Str. pyogenes 4): 0.125 µg/mL | ED50 (Escherichia coli 25922): < 0.1 mg/kg | ED50 [2]: 12 mg/kg | ED50 [3]: > 0.8 mg/kg

Nc1nc(/C(=N/OCC(=O)O)C(=O)N[C@@H]2C(=O)N3C(C(=O)O)=C(/C=C4\CCN(CCF)C4=O)CS[C@H]23)cs1 [B, [6R-[3(E),6α,7β(Z)]]-7-[[(2-Amino-4-thiazolyl)[(carboxy-methoxy)imino]-acetyl]amino]-3-[[1-(2-fluoroethyl)-2-oxo-3-pyrrolidinylidene]methyl]-8-oxo-5-thia-1-azabicyclo[4.2.0]-oct-2-ene-2-carboxylic acid disodium salt]
MIC (E. coli ATCC 25922): 0.0313 µg/mL | MIC (E. coli TEM-1): 0.0313 µg/mL | MIC (Prot. vulgaris ATCC 6380): ≤ 0.0156 µg/mL | MIC (Ps. aeruginosa 5712): 4 µg/mL | MIC [1]: 4 µg/mL | MIC (Staph. aureus ATCC 29213): 16 µg/mL | MIC (Staph. aureus Smith): 8 µg/mL | MIC (Str. pneumoniae 6301): 0.0313 µg/mL | MIC (Str. pyogenes 4): 0.125 µg/mL | ED50 (Escherichia coli 25922): < 0.1 mg/kg | ED50 [2]: 3.5 mg/kg | ED50 [3]: 0.5 mg/kg
